# Assay results from patent US9851354B2, “Methods of treating fragile X syndrome and related disorders” (Alcobra Ltd., priority 2013, dated 2017).
# “Also recorded” adds a separate entry of the source.
# Key:
# Format in all cases: in vivo, mouse
# ERK = experiment: Brain phosphorylation of ERK (western blot)
# Protocol: (§1) In all cases, saline was used as a vehicle (control).
# (§2) The Ras-Mek-ERK and PI3K-Akt-mToR signaling pathways are involved in mediating activity dependent alterations in gene transcription underlying changes in synaptic plasticity (Klann and Dever, 2004). Phosphorylated ERK and Akt protein expression was measured by western blot analysis as previously described by Lopez Verrilli (Lopez Verrilli et al., 2009). The antibodies employed were anti-phosphospecific antibodies against Akt (1/1000) and kinase (ERK) 1/2 (1/2000) (Cell Signaling Technology, Danvers, Mass., USA). The antibody against phospho-ERK detects phosphorylation at phospho-ERK 1/2 (Thr202/Tyr204) whereas the antibody against phospho-Akt detects phosphorylation at phospho-Akt (Thr308). Total Akt and ERK 1/2 protein content and phosphorylated ERK and Akt were evaluated by blotting membranes with antiphospho-Akt (1/1000) and antiphospho-ERK antibodies (1/2000) (Cell Signaling Technology, Danvers, Mass., USA). Akt or ERK phosphorylation was normalized to protein content in the same sample and expressed as % of change with respect to basal conditions, considering basal levels as 100%. Protein loading was evaluated by stripping and re-blotting membranes with j-actin antibody (1/1000) (Sigma-Aldrich, St. Louis, Mo., USA). Phosphorylated ERK and Akt protein expression in blood lymphocytes was measured by flow cytometry. For lymphocyte biomarker determinations, a FACStar plus (Becton Dickinson) was used with the excitation laser tuned at 488 nm and green fluorescence from FITC (GST) was collected through a 515-545 nm bandpass filter. The mean FITC fluorescence Intensity was calculated in relation to the fluorescence of reference cells. The mean cellular fluorescence intensity (MFI) is directly proportional to the mean number of Ab molecules bound per cell.
# [1] = tested on: Fmr1 knockout (KO) or Wild Type (WT) mice; experiment: T-maze rewarded alternation task; conditions: 2 months old, 150 mg/kg once daily 7 days, Study 1
# Protocol: (§3) Fmr1 knockout mice (KO2) mice (The Dutch-Belgium Fragile X Consortium, 1994), initially obtained from the Jackson Laboratory, and wild type (WT) littermates were generated on a C57BL/6J background and repeatedly backcrossed onto a C57BL/6J background for more than eight generations. The Fmr1 knockout mice were housed in groups of the same genotype in a temperature and humidity controlled room with a 12-h light-dark cycle (lights on from 7 am to 7 pm; testing was conducted during light phase). Room temperature and humidity were recorded continuously in the holding room while food and water were available ad libitum. Testing was conducted on healthy Fmr1 knockout mice and their wild type littermates (N=10 mice per treatment group) at 2 or 6 months of age during the behavioral experiments. Mice were housed in commercial plastic cages and experiments were conducted in line with the requirements of the UK Animals (Scientific Procedures) Act, 1986. All experiments were conducted with experimenters blind to genotype and drug treatment. Animals were allowed a minimum acclimatization period of one week prior to performing any experiment. No prophylactic or therapeutic treatment was administered during the acclimatization period.
# as §1
# An elevated or enclosed apparatus in the form of a T (placed horizontally) was used. […]
# Akt [2] = experiment: Brain phosphorylation of Akt (western blot)
# Protocol: as §1, §2
# [3] = tested on: Fmr1 knockout (KO) or Wild Type (WT) mice; experiment: Social recognition memory (Trial 2, social memory ratio); conditions: for social memory, duration of sniffing: 2 months old, Study 2; for duration of sniffing, Trial 2: 150 mg/kg ip 7 days
# Protocol: as §3, §1
# Mice were placed in a test arena/cage of the same order of magnitude in size as the adult's home cage (40×23×12 cm cage, with a Perspex lid to facilitate viewing the mice) with fresh wood chippings on the floor. A background mouse odor was created by putting in some non-experimental mice into the apparatus prior to testing. Mice were transferred to the experimental room 10-15 min prior to testing. A test subject and a juvenile were placed simultaneously into the test cage. The total duration and number of bouts of social investigation, defined as sniffing and close following (<2 cm from the tail) of the stimulus juvenile by the tested mouse, was assessed for 3 min. 30 min later, the test was repeated using the same stimulus juvenile. Data parameters collected were the total duration and total number of bouts of sniffing for the acquisition and recognition. A social memory ratio was derived, defined as trial 2/trial 1+2. Therefore, no memory (e.g. 20/(20+20)=0.5 and memory (e.g. 10/(20+10)=<0.5.
# Multivariate analysis of variance was employed to assess group differences across data. Repeated measures ANOVA were performed for behavioral data. Statistically significant effects in each ANOVA were followed with post hoc comparisons, using the Newman-Keuls test (Study 1) or the Tukey test (Study 2). A p value of less than 0.05 was considered significant.
# Social memory ratio was defined as the duration of sniffing bouts: trial 2/trial 1+2. Therefore, an example of no memory was (e.g. 20/(20+20)=0.5, while an example of memory was (e.g. 10/(20+10)=<0.5.
# [4] = tested on: Fmr1 knockout (KO) or Wild Type (WT) mice; experiment: Y-maze spontaneous alternation; conditions: 2 months old, 150 mg/kg once daily 7 days, Study 1
# Protocol: as §3, §1
# Two tasks were implemented. The first was an unlearned assessment of spontaneous alternation between arm entries. […]
# Akt [5] = experiment: Lymphocyte pAkt (flow cytometry); conditions: Fmr1 KO mice, 2 months old
# Protocol: as §1, §2
# [6] = Fmr1 KO mice, 2 months old, 150 mg/kg ip 7 days, Study 2
# [7] = Fmr1 KO mice, 6 months old, 150 mg/kg ip once daily 7 days
# [8] = WT mice, 2 months old, 150 mg/kg ip 7 days, Study 2
# [9] = WT mice, 2 months old, 150 mg/kg ip once daily 7 days, Study 1
# [10] = any mice (KO or WT), 2 months old, 150 mg/kg ip once daily 7 days, Study 1
smiles,measurement,setting,value
"Cc1ncc(CO)c(CO)c1O.O=C1CC[C@@H](C(=O)O)N1 [metadoxine, pyridoxol L,2-pyrrolidon-5 carboxylate]",pERK levels in hippocampus,ERK; [6],complete reversal of activation of ERK
same,pERK levels in pre-frontal cortex,ERK; [6],effect in pre-frontal cortex was partial
same,pERK levels in striatum,ERK; [6],complete reversal of activation of ERK
same,whole brain levels of pERK,ERK; [7],increase was reversed by metadoxine treatment
same,"pERK levels in hippocampus, pre-frontal cortex and striatum",ERK; [8],without effect on WT mice
same,whole brain phosphorylation of ERK,ERK; [9],no effect on phosphorylation of ERK in WT mice
same,whole brain total ERK levels,ERK; [10],no effect
same,T-maze rewarded alternation working memory (latency to reach the correct arm),[1],reversal being partial; also recorded: significant improvement in memory
same,pAkt levels in hippocampus,Akt [2]; [6],complete reversal of activation of Akt
same,pAkt levels in pre-frontal cortex,Akt [2]; [6],complete reversal of activation of Akt
same,pAkt levels in striatum,Akt [2]; [6],complete reversal of activation of Akt
same,whole brain levels of pAkt,Akt [2]; [7],reversed this increase in brain pAkt
same,"pAkt levels in hippocampus, pre-frontal cortex and striatum",Akt [2]; [8],without effect on WT mice
same,whole brain phosphorylated Akt,Akt [2]; [9],no effect on WT mice
same,whole brain total Akt levels,Akt [2]; [10],no effect
same,"social memory, duration of sniffing","[3]; Fmr1 KO mice, 150 mg/kg ip once daily 7 days",reversal was complete
same,"social memory, duration of sniffing","[3]; Fmr1 KO mice, 150 mg/kg oral once daily 7 days",reversal was complete
same,"social memory, duration of sniffing","[3]; Fmr1 KO mice, 300 mg/kg oral once daily 7 days",reversal was complete
same,"social memory, duration of sniffing (Trial 2)",[3]; [7],reversal by metadoxine was complete
same,"social memory, number of sniffing bouts (Trial 2)",[3]; [7],reversal for number of sniffing bouts was partial
same,"duration of sniffing, Trial 2","[3]; KO-M: Fmr1 KO mice, 6 months old",12.7
same,"social memory, duration of sniffing","[3]; WT mice, any dose (150 mg/kg ip, 150 and 300 mg/kg oral)",without effect on WT mice
same,"social memory, sniffing bouts and duration (Trial 2)","[3]; WT mice, 6 months old, 150 mg/kg ip once daily 7 days",without effect on WT mice
same,"duration of sniffing, Trial 2","[3]; WT-M: WT mice, 6 months old",12.5
same,Y-maze spontaneous alternation,[4],partial reversal of the deficit
same,lymphocyte pAkt,Akt [5]; 150 mg/kg ip once daily 7 days,normalized overactivated Akt
same,lymphocyte pAkt,Akt [5]; 150 mg/kg oral once daily 7 days,normalized overactivated Akt
same,lymphocyte pAkt,Akt [5]; 300 mg/kg oral once daily 7 days,normalized overactivated Akt
